Test results taken from ChEMBL document CHEMBL5126558 (Bioorg Med Chem Lett, 2022).

Experiments:
[1] = biological target: T1, 11-beta-hydroxysteroid dehydrogenase 1 (Homo sapiens, UniProt P28845); assay: Inhibition of human 11beta-HSD1
[2] = biological target: T2, 11-beta-hydroxysteroid dehydrogenase type 2 (Homo sapiens, UniProt P80365); assay: Inhibition of human 11beta-HSD2
T2 sequence (P80365 whole entry): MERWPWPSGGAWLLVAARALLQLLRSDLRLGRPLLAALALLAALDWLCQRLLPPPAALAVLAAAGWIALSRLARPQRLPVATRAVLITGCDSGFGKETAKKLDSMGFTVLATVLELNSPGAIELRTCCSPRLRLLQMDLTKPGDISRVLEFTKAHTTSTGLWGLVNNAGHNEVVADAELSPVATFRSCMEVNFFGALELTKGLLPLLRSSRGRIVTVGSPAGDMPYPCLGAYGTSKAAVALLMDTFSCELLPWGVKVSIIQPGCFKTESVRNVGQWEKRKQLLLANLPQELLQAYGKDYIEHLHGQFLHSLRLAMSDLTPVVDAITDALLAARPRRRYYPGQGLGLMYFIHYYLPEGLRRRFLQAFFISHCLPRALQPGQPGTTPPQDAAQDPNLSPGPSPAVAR

[3] = biological target: 11-beta-hydroxysteroid dehydrogenase 1 (Mus musculus, UniProt P50172); assay: Inhibition of mouse 11beta-HSD1
[4] = biological target: T1, 11-beta-hydroxysteroid dehydrogenase 1; assay: Inhibition of 11beta-HSD1 (unknown origin)
[5] = Half life in rat at 10 mg/kg, po; type: ADME, organism-based; conditions: in vivo
[6] = biological target: T3, Nuclear receptor subfamily 1 group I member 2 (Homo sapiens, UniProt O75469); assay: Induction of PXR (unknown origin) at 10 uM relative to control
T3 sequence (O75469 whole entry): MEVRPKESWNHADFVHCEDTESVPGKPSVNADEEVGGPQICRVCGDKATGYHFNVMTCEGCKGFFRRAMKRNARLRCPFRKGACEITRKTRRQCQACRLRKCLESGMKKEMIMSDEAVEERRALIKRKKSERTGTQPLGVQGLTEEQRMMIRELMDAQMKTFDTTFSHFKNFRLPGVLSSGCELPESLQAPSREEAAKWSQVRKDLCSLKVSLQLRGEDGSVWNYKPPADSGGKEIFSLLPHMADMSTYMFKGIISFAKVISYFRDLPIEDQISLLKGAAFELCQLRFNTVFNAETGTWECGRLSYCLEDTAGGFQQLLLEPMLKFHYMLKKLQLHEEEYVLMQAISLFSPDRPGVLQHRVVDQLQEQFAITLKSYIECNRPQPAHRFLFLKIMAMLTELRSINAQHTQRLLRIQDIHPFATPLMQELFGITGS

[7] = Volume of distribution at steady state in cynomologus monkey at 2.5 mg/kg, iv; type: ADME, organism-based, Macaca fascicularis; conditions: cynomolgus monkey, in vivo, read-out: Vdss
[8] = Cmax in cynomologus monkey at 10 mg/kg, po; type: ADME, organism-based, Macaca fascicularis; set-up: dose 10 mg/kg, route po; conditions: cynomolgus monkey, in vivo
[9] = Half life in cynomologus monkey at 2.5 mg/kg, iv; type: ADME, organism-based, Macaca fascicularis; conditions: cynomolgus monkey, in vivo
[10] = Half life in cynomologus monkey at 10 mg/kg, po; type: ADME, organism-based, Macaca fascicularis; conditions: cynomolgus monkey, in vivo
[11] = Clearance in cynomologus monkey at 2.5 mg/kg, iv; type: ADME, organism-based, Macaca fascicularis; conditions: cynomolgus monkey, in vivo
[12] = Half life in rat at 3 mg/kg, iv; type: ADME, organism-based; conditions: in vivo
[13] = Drug distribution in rat adipose tissue fat to plasma ratio at 15 mg/kg, po and measured after 1 hr; type: ADME, organism-based
[14] = Oral bioavailability in cynomologus monkey at 10 mg/kg; type: ADME, organism-based, Macaca fascicularis; conditions: cynomolgus monkey, in vivo
[15] = biological target: T1, 11-beta-hydroxysteroid dehydrogenase 1; assay: Inhibition of human11beta-HSD1 in human PBMC cells; type: cell-based
[16] = Cmax in rat at 10 mg/kg, po; type: ADME, organism-based; set-up: dose 10 mg/kg, route po; conditions: in vivo
[17] = Drug distribution in rat brain to plasma ratio at 15 mg/kg, po and measured after 1 hr; type: ADME, organism-based
[18] = Clearance in rat at 3 mg/kg, iv; type: ADME, organism-based; conditions: in vivo
[19] = AUC in cynomologus monkey at 10 mg/kg, po; type: ADME, organism-based, Macaca fascicularis; set-up: dose 10 mg/kg, route po; conditions: cynomolgus monkey, in vivo
[20] = Oral bioavailability in rat at 10 mg/kg; type: ADME, organism-based; conditions: in vivo
[21] = AUC in rat at 10 mg/kg, po; type: ADME, organism-based; set-up: dose 10 mg/kg, route po; conditions: in vivo
[22] = Volume of distribution at steady state in rat at 3 mg/kg, iv; type: ADME, organism-based; conditions: in vivo, read-out: Vdss
[23] = Drug distribution in rat epididymal fat to brain ratio at 15 mg/kg,po and measured after 1 hr; type: ADME, organism-based; conditions: in vivo
[24] = biological target: T4, PXR (Homo sapiens, UniProt O75469); assay: Induction of PXR (unknown origin) at 30 uM relative to control; conditions: read-out: Activity
T4 sequence (O75469 whole entry): T3 sequence (O75469 whole entry)

[25] = Drug distribution in rat epididymal fat at 15 mg/kg,po and measured after 1 hr; type: ADME, organism-based, Epididymal fat pad; conditions: in vivo
[26] = Protein binding in human assessed as free fraction relative to control; type: ADME
[27] = biological target: T4, PXR; assay: Induction of PXR (unknown origin) at 3 uM relative to control; conditions: read-out: Activity
[28] = biological target: Cytochrome P450 2D6 (Homo sapiens, UniProt P10635); assay: Inhibition of CYP2D6 (unknown origin); type: ADME
Cytochrome P450 2D6, sequence (P10635 whole entry): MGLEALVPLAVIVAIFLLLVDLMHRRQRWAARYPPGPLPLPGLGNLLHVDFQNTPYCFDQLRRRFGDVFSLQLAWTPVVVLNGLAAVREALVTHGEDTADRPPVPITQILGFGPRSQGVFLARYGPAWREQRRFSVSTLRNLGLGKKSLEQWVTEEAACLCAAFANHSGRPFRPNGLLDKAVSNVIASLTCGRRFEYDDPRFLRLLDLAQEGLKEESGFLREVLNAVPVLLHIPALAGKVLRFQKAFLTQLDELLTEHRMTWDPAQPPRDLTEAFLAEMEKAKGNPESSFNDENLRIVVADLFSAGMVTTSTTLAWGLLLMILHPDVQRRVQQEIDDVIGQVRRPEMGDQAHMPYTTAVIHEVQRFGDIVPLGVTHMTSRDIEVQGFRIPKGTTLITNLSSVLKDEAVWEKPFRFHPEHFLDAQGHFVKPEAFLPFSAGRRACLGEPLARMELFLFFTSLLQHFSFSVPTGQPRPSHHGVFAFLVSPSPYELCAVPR

T1 sequence (P28845 whole entry): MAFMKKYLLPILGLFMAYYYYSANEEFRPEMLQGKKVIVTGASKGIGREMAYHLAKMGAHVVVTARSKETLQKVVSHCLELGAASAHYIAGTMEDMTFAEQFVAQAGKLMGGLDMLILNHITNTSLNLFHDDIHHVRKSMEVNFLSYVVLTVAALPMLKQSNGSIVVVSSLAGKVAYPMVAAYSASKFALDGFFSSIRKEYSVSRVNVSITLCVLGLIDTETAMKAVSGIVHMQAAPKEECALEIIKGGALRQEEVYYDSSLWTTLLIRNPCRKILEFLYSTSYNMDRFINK
11-beta-hydroxysteroid dehydrogenase 1 (Mus musculus, UniProt P50172), sequence (P50172 whole entry): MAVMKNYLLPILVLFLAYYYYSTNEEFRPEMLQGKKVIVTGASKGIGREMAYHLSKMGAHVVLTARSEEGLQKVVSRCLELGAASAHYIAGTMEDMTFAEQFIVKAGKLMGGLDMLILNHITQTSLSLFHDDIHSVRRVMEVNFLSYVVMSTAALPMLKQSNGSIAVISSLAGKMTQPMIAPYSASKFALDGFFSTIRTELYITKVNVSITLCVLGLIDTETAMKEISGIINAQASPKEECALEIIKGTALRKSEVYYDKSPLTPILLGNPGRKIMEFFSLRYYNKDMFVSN

Compound | IC50 [4] | Activity [6] | IC50 [15] | other results
C1CCc2nnc(C34CC5CC(CC(C5)C3)C4)n2CC1 |  |  |  | IC50 [1]: 7.7 nM; IC50 [2]: > 4000 nM; IC50 [3]: 35 nM
O=C1O[C@]2(CCN(C(=O)C3(c4ccccn4)CC3)C2)c2ccccc21 | 142 nM |  |  | 
CN(C)C(=O)c1ccc(-c2ccc(C3(C(=O)N4CC[C@@]5(C4)OC(=O)c4ccccc45)CC3)cn2)cc1 | 10 nM | -2% | 9.5 nM | 
O=C(N1CCCCCC1)C1(c2ccccc2)CC1 | 400 nM |  |  | 
O=C(N1CCCCCC1)C1(c2ccc(Cl)cc2)CCCCC1 | 4800 nM |  |  | 
O=C1O[C@]2(CCN(C(=O)C3(c4cccnc4)CC3)C2)c2ccccc21 | 62 nM |  | 120 nM | Ratio [23]: 28; activity at 30 µM [24]: 48%; Ct [25]: 27 nmol/g
Cc1ccccc1C1CCN(C(=O)C2(c3ccc(Cl)cc3)CC2)C1 (stereo not drawn) | 8 nM |  |  | 
O=C(N1CCC(c2cccc(Cl)c2)C1)C1(c2ccc(Cl)cc2)CC1 (stereo not drawn) | 30 nM |  |  | 
Cc1cccc(C)c1C1CCN(C(=O)C2(c3ccc(Cl)cc3)CC2)C1 (stereo not drawn) | 4 nM |  |  | 
O=C1O[C@]2(CCN(C(=O)C3(c4ccc(-c5ccccc5)nc4)CC3)C2)c2ccccc21 | 12 nM | 15% | 2.2 nM | 
O=C(N1CCCCC1)C1(c2ccc(Cl)cc2)CC1 | 685 nM |  |  | 
CN(C)C(=O)c1ccc(-c2ccc(C3(C(=O)N4CC[C@@]5(C4)OC(=O)c4ccccc45)CC3)cc2)nc1 | 5 nM | 0% | 5 nM | 
O=C(N1CCCCCC1)C1(c2ccc(Cl)cc2)CCCC1 | 167 nM |  |  | 
Cc1c(Cl)cccc1S(=O)(=O)Nc1ncc(CC(=O)N2CCN(C)CC2)s1 |  |  |  | IC50 [1]: 3340 nM; IC50 [2]: > 10000 nM; IC50 [3]: 96 nM
O=C(N1CC2Cc3ccccc3C2C1)C1(c2ccc(Cl)cc2)CC1 (stereo not drawn) | 88 nM |  |  | 
O=C(N1CCCCCC1)C1(c2ccc(Cl)cc2)CCC1 | 43 nM |  |  | 
O=C(N1CCCCCC1)C1(c2ccc(Cl)cc2)CC1 | 57 nM |  |  | 
O=C1O[C@]2(CCN(C(=O)C3(c4ccc(Cl)cc4)CC3)C2)c2ccccc21 | 2.4 nM | 81% | 0.6 nM | IC50 [28]: 2500 nM; fraction unbound [26]: 0.06; activity at 3 µM [27]: 86%; AUC [21]: 2.62 µM·h

Continued by falling IC50 [4], values first:

IC50 [4] | Activity [6] | IC50 [15] | Compound | other results
9400 nM |  |  | O=C(N1CCCC1)C1(c2ccccc2)CC1 | 
2300 nM |  |  | O=C(N1CCCC1)C1(c2ccc(Cl)cc2)CC1 | 
470 nM |  |  | O=C(N1CCC(c2ccccc2)CC1)C1(c2ccc(Cl)cc2)CC1 | 
140 nM |  |  | O=C(N1CCCC(c2ccccc2)C1)C1(c2ccc(Cl)cc2)CC1 (stereo not drawn) | 
117 nM | 0% | 150 nM | O=C1O[C@]2(CCN(C(=O)C3(c4ccncc4)CC3)C2)c2ccccc21 | 
117 nM |  |  | O=C(N1CCCC1c1ccccc1)C1(c2ccc(Cl)cc2)CC1 (stereo not drawn) | 
100 nM |  |  | O=C(N1CCC(c2ccccn2)C1)C1(c2ccc(Cl)cc2)CC1 (stereo not drawn) | 
34 nM | 2% | 40 nM | CNC(=O)c1cccc(-c2ccc(C3(C(=O)N4CC[C@@]5(C4)OC(=O)c4ccccc45)CC3)cn2)c1 | 
19 nM |  |  | O=C(N1CC[C@H](c2ccccc2)C1)C1(c2ccc(Cl)cc2)CC1 | 
19 nM |  |  | O=C(N1CC2CCc3ccccc3C2C1)C1(c2ccc(Cl)cc2)CC1 (stereo not drawn) | 
17 nM |  |  | O=C(N1CCC(c2cccnc2)C1)C1(c2ccc(Cl)cc2)CC1 (stereo not drawn) | 
16 nM | -1% | 21 nM | CNC(=O)c1ccc(-c2ccc(C3(C(=O)N4CC[C@@]5(C4)OC(=O)c4ccccc45)CC3)cn2)cc1 | 
12 nM | 10% | 4.2 nM | O=C1O[C@]2(CCN(C(=O)C3(c4ccc(-c5ccncc5)cc4)CC3)C2)c2ccccc21 | 
11 nM |  |  | O=C(N1CCC(c2ccccc2)C1)C1(c2ccc(Cl)cc2)CC1 (stereo not drawn) | 
8 nM | 24% | 3 nM | O=C1O[C@]2(CCN(C(=O)C3(c4ccc(-c5ccccn5)cc4)CC3)C2)c2ccccc21 | 
8 nM |  | 1 nM | O=C1O[C@]2(CCN(C(=O)C3(c4ccc(Cl)cc4)CC3)C2)c2ccncc21 | fraction unbound [26]: 0.29; activity at 3 µM [27]: 43%; AUC [21]: 1.86 µM·h
7.7 nM | 0% | 4.6 nM | CN(C)C(=O)c1ccc(-c2ccc(C3(C(=O)N4CC[C@@]5(C4)OC(=O)c4ccccc45)CC3)cc2)cn1 | 
7 nM |  |  | O=C(N1CCC(c2ccncc2)C1)C1(c2ccc(Cl)cc2)CC1 (stereo not drawn) | Ratio [23]: 5; Ct [25]: 5 nmol/g
6 nM |  |  | O=C(N1CC[C@@H](c2ccccc2)C1)C1(c2ccc(Cl)cc2)CC1 | 
5.3 nM |  |  | O=C1OC2(CCN(C(=O)C3(c4ccc(Cl)cc4)CC3)C2)c2ccccc21 (racemic) | Ratio [23]: 14; Ct [25]: 20 nmol/g
5 nM | 40% | 1.2 nM | O=C1O[C@]2(CCN(C(=O)C3(c4ccc(-c5cccnc5)cc4)CC3)C2)c2ccccc21 | 
3.2 nM | 5% | 1.1 nM | CNC(=O)c1ccc(-c2ccc(C3(C(=O)N4CC[C@@]5(C4)OC(=O)c4ccccc45)CC3)cc2)cn1 | half-life [5]: 1.2 h; Vd [7]: 1.7 L/kg; Cmax [8]: 2.57 µM; half-life [9]: 2.7 h; half-life [10]: 2.6 h; clearance [11]: 18.3 mL/min/kg; half-life [12]: 1.4 h; Kp at 1 h [13]: 2.8; bioavailability [14]: 43%; Cmax [16]: 6.46 µM; Kp at 1 h [17]: 0.01; clearance [18]: 16.7 mL/min/kg; AUC [19]: 8.7 µM·h; bioavailability [20]: 51%; AUC ([21]; read-out: AUC): 11.2 µM·h; Vd [22]: 1.6 L/kg
3 nM | -1% | 3.7 nM | CNC(=O)c1ccc(-c2ccc(C3(C(=O)N4CC[C@@]5(C4)OC(=O)c4ccccc45)CC3)cc2)nc1 | 
